Converted amounts (≈) assume the structure as drawn. Structures can show the parent of a compound that is named as a salt.
Legend:
Format in all cases: cell-based
[1] = tested on: Staphylococcus aureus 285; experiment: Minimum inhibition concentration (MIC), Table 1; details: for MIC: Staphylococcus aureus, 285, Germ: Staphylococcus aureus 285, read-out: Minimum inhibition concentration (MIC); for Minimum inhibition concentration (MIC): Germ: Staphylococcus aureus 285
From the text: (§1) Minimum inhibition concentration (MIC) in γ/ml
Germ: Staphylococcus aureus 285

[2] = tested on: Streptococcus pyogenes A; experiment: Minimum inhibition concentration (MIC), Table 3; details: Germ: Streptococcus pyogenes A; for MIC: read-out: Minimum inhibition concentration MIC
From the text: Minimum inhibition concentration MIC in γ/ml
Germ: Streptococcus pyogenes A

[3] = tested on: Streptococcus D; experiment: Minimum inhibition concentration (MIC), Table 4; details: Germ: Streptococcus D; for MIC: Streptococcus, read-out: Minimum inhibition concentration (MIC)
From the text: as §1

[4] = tested on: Staphylococcus aureus SG 511; experiment: Minimum inhibition concentration (MIC), Table 5; details: for MIC: Staphylococcus aureus, SG511, Germ: Staphylococcus aureus SG 511, read-out: Minimum inhibition concentration (MIC); for Minimum inhibition concentration (MIC): Germ: Staphylococcus aureus SG 511
From the text: as §1
Germ: Staphylococcus aureus SG 511

Molecule	MIC [1] [µg/mL]	MIC [2] [µg/mL]	MIC [3] [µg/mL]	MIC [4] [µg/mL]	Minimum inhibition concentration (MIC) [1] [µg/mL]	Minimum inhibition concentration (MIC) [2] [µg/mL]	Minimum inhibition concentration (MIC) [3] [µg/mL]	Minimum inhibition concentration (MIC) [4] [µg/mL]	Minimum inhibition concentration (MIC) ([4]; hydrochloride) [µg/mL]
CC(C)(C)c1csc(SCC2=C(C(=O)O)N3C(=O)C(NC(=O)Cc4ccc(C5=NCCN5)cc4)C3SC2)n1 (stereo not drawn) [Example 111, 3-[(4-tert.butyl-thiazole-2-yl)-thiomethyl]-7-[-4-(imidazoline-2-yl)-phenylacetamido]-Δ3-cephem-4-carboxylic acid]	0.156 to 0.391 (≈ 0.273 to 0.684 µM)	0.000391 to 0.0078 (≈ 0.000684 to 0.0136 µM)	0.196 to 6.25 (≈ 0.343 to 10.9 µM)	0.0625 to 0.078 (≈ 0.109 to 0.136 µM)					
O=C(Cc1ccc(C2=NCCCN2)cc1)NC1C(=O)N2C(C(=O)O)=C(CSc3nc(-c4ccccc4)cs3)CSC12 (stereo not drawn) [Example 14, 3-[(4-phenyl-thiazole-2-yl)-thiomethyl]-7-[4-(1,4,5,6-tetrahydropyrimide-2-yl)-phenylacetamido]-Δ 3-cephem-4-carboxylic acid]	0.5 to 1.25 (≈ 0.825 to 2.06 µM)	0.008 to 0.0156 (≈ 0.0132 to 0.0258 µM)	10 to 50 (≈ 16.5 to 82.5 µM)	0.0625 to 0.078 (≈ 0.103 to 0.129 µM)					
CSc1nc(SCC2=C(C(=O)O)N3C(=O)C(NC(=O)Cc4ccc(C5=NCCCN5)cc4)C3SC2)nc(-c2ccccc2)n1 (stereo not drawn) [Example 69, 3-[(4-methylmercapto-6-phenyl-1,3,5-triazine-2-yl)-thiomethyl]-7-[4-(1,4,5,6-tetrahydropyrimide-2-yl)-phenyl-acetamido]-Δ 3-cephem-4-carboxylicacid]	0.156 to 0.391 (≈ 0.241 to 0.604 µM)	0.000391 to 0.0078 (≈ 0.000604 to 0.012 µM)	10 to 50 (≈ 15.4 to 77.2 µM)	0.0196 to 0.0391 (≈ 0.0303 to 0.0604 µM)					
O=C(Cc1ccc(C2=NCCCN2)cc1)NC1C(=O)N2C(C(=O)O)=C(CSc3nnnn3-c3ccccc3)CSC12 (stereo not drawn) [Example 71, 3-[(1-phenyl-1-H-tetrazole-5-yl)-thiomethyl]-7-[4-(1,4,5,6-tetrahydropyrimide-2-yl)-phenyl-acetamido]-Δ 3-cephem-4-carboxylic acid]	0.5 to 1.25 (≈ 0.846 to 2.12 µM)	0.000391 to 0.0078 (≈ 0.000662 to 0.0132 µM)	10 to 50 (≈ 16.9 to 84.6 µM)	0.0625 to 0.078 (≈ 0.106 to 0.132 µM)					
Cc1csc(SCC2=C(C(=O)O)N3C(=O)C(NC(=O)COc4ccc(C(=N)N)cc4)C3SC2)n1 (stereo not drawn) [Example 64, 3-[(4-methyl-1,3-thiazole-2-yl)-thiomethyl]-7-(4-amidinophenoxyacetamido)-Δ 3-cephem-4-carboxylic acid]					0.5 to 1.25	0.000391 to 0.0078	10 to 50	0.0625 to 0.078	
N=C(N)c1ccc(OCC(=O)NC2C(=O)N3C(C(=O)O)=C(CSc4ccccn4)CSC23)cc1 (stereo not drawn) [Example 29, 3-[(pyride-2-yl)-thiomethyl]-7-(4-amidinophenoxyacetamido)-Δ 3-cephem-4-carboxylic acid]	0.5 to 1.25 (≈ 1 to 2.5 µM)	0.000391 to 0.0078 (≈ 0.000783 to 0.0156 µM)	10 to 50 (≈ 20 to 100 µM)	0.0625 to 0.078 (≈ 0.125 to 0.156 µM)					
Cc1nnc(SCC2=C(C(=O)O)N3C(=O)C(NC(=O)COc4ccc(C(=N)N)cc4)C3SC2)o1 (stereo not drawn) [Example 38, 3-[(5-methyl-1,3,4-oxadiazole-2-yl)-thiomethyl]-7-(4-amidinophenoxy-acetamido)-Δ 3-cephem-4-carboxylic acid]	0.156 to 0.391 (≈ 0.309 to 0.775 µM)	0.008 to 0.0156 (≈ 0.0159 to 0.0309 µM)	10 to 50 (≈ 19.8 to 99.1 µM)	0.0625 to 0.078 (≈ 0.124 to 0.155 µM)					
CCCCCCNC(=N)c1ccc(OCC(=O)NC2C(=O)N3C(C(=O)O)=C(CSc4nnc(C)o4)CSC23)cc1 (stereo not drawn) [Example 32, 3-[(5-methyl-1,3,4-oxadiazole-2-yl)-thiomethyl]-7-[4-(N-n-hexylamidino)-phenoxyacetamido]-Δ 3-cephem-4-carboxylic acid]	0.156 to 0.391 (≈ 0.265 to 0.664 µM)	0.000391 to 0.0078 (≈ 0.000664 to 0.0132 µM)	10 to 50 (≈ 17 to 84.9 µM)	0.0625 to 0.078 (≈ 0.106 to 0.132 µM)					
N=C(N)c1ccc(CC(=O)NC2C(=O)N3C(C(=O)O)=C(CSc4ccc5ccccc5n4)CSC23)cc1 (stereo not drawn) [Example 91, 3-quinoline[-2-yl-thiomethyl]-7-[4-amidino-phenyl-acetamido]-Δ 3-cephem-4-carboxylic acid]	0.156 to 0.391 (≈ 0.292 to 0.733 µM)	0.000391 to 0.0078 (≈ 0.000733 to 0.0146 µM)		0.0625 to 0.078 (≈ 0.117 to 0.146 µM)					
Cc1nnc(SCC2=C(C(=O)O)N3C(=O)C(NC(=O)COc4ccc(C(=N)N)cc4)C3SC2)s1 (stereo not drawn) [Example 46, 3-[(5-methyl-1,3,4-thiadiazole-2-yl)-thiomethyl]-7-[4-amidinophenoxyacetamido]-Δ 3-cephem-4-carboxylic acid]	0.5 to 1.25 (≈ 0.96 to 2.4 µM)							0.0196 to 0.0391	
Cc1csc(SCC2=C(C(=O)O)N3C(=O)C(NC(=O)Cc4ccc(C(=N)N)cc4)C3SC2)n1 (stereo not drawn) [Example 5, 3-[(4-methyl-thioazole-2-yl)-thiomethyl]-7-(4-amidinophenyl-acetamido)-Δ3-cephem-4-carboxylic acid]	0.156 to 0.391 (≈ 0.31 to 0.776 µM)		10 to 50 (≈ 19.9 to 99.3 µM)	0.0625 to 0.078 (≈ 0.124 to 0.155 µM)					
COc1cc(C(=N)N)ccc1OCC(=O)NC1C(=O)N2C(C(=O)O)=C(CSc3nncs3)CSC12 (stereo not drawn) [Example 127]	0.156 to 0.391 (≈ 0.291 to 0.729 µM)	0.000391 to 0.0078 (≈ 0.000729 to 0.0145 µM)		0.0625 to 0.078 (≈ 0.116 to 0.145 µM)					
Cc1nnc(SCC2=C(C(=O)O)N3C(=O)C(NC(=O)COc4ccc(C5=NCCN5)cc4)C3SC2)s1 (stereo not drawn) [Example 75, 3-[(5-methyl-1,3,4-thiadiazole-2-yl)-thiomethyl]-7-[4-(imidazoline-2-yl)-phenoxyacetamido]-Δ 3-cephem-4-carboxylic acid]	0.5 to 1.25 (≈ 0.915 to 2.29 µM)	0.000391 to 0.0078 (≈ 0.000715 to 0.0143 µM)	10 to 50 (≈ 18.3 to 91.5 µM)						
3-[(5-methyl-1,3,4-thiadiazole-2-yl)-thiomethyl]-7-[4-(imidazoline-2-yl)-2-methoxyphenoxy-acetamido]-Δ3-cephem-4-carboxylic acid [Example 126]					0.5 to 1.25	0.008 to 0.0156	10 to 50		
CCCCc1nnc(SCC2=C(C(=O)O)N3C(=O)C(NC(=O)Cc4ccc(C5=NCCCN5)cc4)C3SC2)o1 (stereo not drawn) [Example 81, 3-[(5-n-butyl-1,3,4-oxadiazole-2-yl)-thiomethyl]-7-[4-(1,4,5,6-tetrahydropyrimide-2-yl)-phenyl-acetamido]-Δ 3-cephem-4-carboxylic acid]	1.6 to 2.5 (≈ 2.8 to 4.38 µM)	0.008 to 0.0156 (≈ 0.014 to 0.0273 µM)	10 to 50 (≈ 17.5 to 87.6 µM)						
N=C(N)Nc1ccc(CC(=O)NC2C(=O)N3C(C(=O)O)=C(CSc4nccs4)CSC23)cc1 (stereo not drawn) [Example 8]	0.5 to 1.25 (≈ 0.991 to 2.48 µM)		10 to 50 (≈ 19.8 to 99.1 µM)	0.0625 to 0.078 (≈ 0.124 to 0.155 µM)					
CCCc1nnc(SCC2=C(C(=O)O)N3C(=O)C(NC(=O)COc4ccc(C5=NCCN5)cc4)C3SC2)o1 (stereo not drawn) [Example 41, 3-[(5-n-propyl-1,3,4-oxadiazole-2-yl)-thiomethyl]-7-[4-(imidazoline-2-yl)-phenoxyacetamido]-Δ 3-cephem-4-carboxylic acid]	0.5 to 1.25 (≈ 0.895 to 2.24 µM)	0.000391 to 0.0078 (≈ 0.0007 to 0.014 µM)	10 to 50 (≈ 17.9 to 89.5 µM)						
N=C(N)c1ccc(OCC(=O)NC2C(=O)N3C(C(=O)O)=C(CSc4nnc(N)s4)CSC23)cc1 (stereo not drawn) [Example 49, 3-[(5-amino-1,3,4-thiadiazole-2-yl)-thiomethyl]-7-(4-amidinophenoxyacetamido)-Δ 3-cephem-4-carboxylic acid]	0.5 to 1.25 (≈ 0.959 to 2.4 µM)		10 to 50 (≈ 19.2 to 95.9 µM)	0.0625 to 0.078 (≈ 0.12 to 0.15 µM)					
Cc1nnc(SCC2=C(C(=O)O)N3C(=O)C(NC(=O)Cc4ccc(C(=N)N)cc4)C3SC2)s1 (stereo not drawn) [Example 26, 3-[(5-methyl-1,3,4-thiadiazole-2-yl)-thiomethyl]-7-(4-amidinophenylacetamido)-Δ 3-cephem-4-carboxylic acid]			10 to 50 (≈ 19.8 to 99.1 µM)	0.0625 to 0.078 (≈ 0.124 to 0.155 µM)					
CCCc1nnc(SCC2=C(C(=O)O)N3C(=O)C(NC(=O)Cc4ccc(C5=NCCCN5)cc4)C3SC2)o1 (stereo not drawn) [Example 82, 3-[(5-n-propyl-1,3,4-oxadiazole-2-yl)-thiomethyl]-7-[4-(1,4,5,6-tetrahydropyrimide-2-yl)-phenylacetamido-]-Δ 3-cephem-4-carboxylic acid]	0.5 to 1.25 (≈ 0.898 to 2.25 µM)	0.008 to 0.0156 (≈ 0.0144 to 0.028 µM)	10 to 50 (≈ 18 to 89.8 µM)						
COc1cc(C(=N)N)ccc1OCC(=O)NC1C(=O)N2C(C(=O)O)=C(CSc3nnc(C)s3)CSC12 (stereo not drawn) [Example 128, 3-[(5-methyl-1,3,4-thiadizole-2-yl)-thiomethyl]-7(4-amidino-2-methoxy-phenoxy-acetamido)-Δ3-cephem-4-carboxylic acid]	0.156 to 0.391 (≈ 0.283 to 0.71 µM)	0.008 to 0.0156 (≈ 0.0145 to 0.0283 µM)		0.0625 to 0.078 (≈ 0.114 to 0.142 µM)					
Cc1nnc(SCC2=C(C(=O)O)N3C(=O)C(NC(=O)COc4ccc(C(=N)N)cc4)C3SC2)s1 (stereo not drawn) [Example 35, 3-[(5-methyl-1,3,4-thiadiazole-2-yl)-thiomethyl]-7-[4-amidinophenoxy-acetamido]-Δ 3-cephem-4-carboxylic acid hydrochloride]		0.000391 to 0.0078	10 to 50						0.0625 to 0.078
N=C(N)c1ccc(CC(=O)NC2C(=O)N3C(C(=O)O)=C(CSc4nnco4)CSC23)cc1 (stereo not drawn) [Example 61, 3-[(1,3,4-oxadiazole-2-yl)-thiomethyl]-7-(4-amidino-phenylacetamido)-Δ 3-cephem-4-carboxylic acid]	0.5 to 1.25 (≈ 1.05 to 2.63 µM)	0.008 to 0.0156 (≈ 0.0169 to 0.0329 µM)	10 to 50 (≈ 21.1 to 105 µM)						
Cc1ccnc(SCC2=C(C(=O)O)N3C(=O)C(NC(=O)Cc4ccc(C5=NCCCN5)cc4)C3SC2)n1 (stereo not drawn) [Example 102, 3-[(4-methyl-pyrimide-2-yl)-thiomethyl]-7-[4-(1,4,5,6-tetrahydropyrimide-2-yl)-phenylacetamido]-Δ3-cephem-4-carboxylic acid]	1.6 to 2.5 (≈ 2.97 to 4.64 µM)	0.008 to 0.0156 (≈ 0.0149 to 0.029 µM)	10 to 50 (≈ 18.6 to 92.8 µM)						
O=C(Cc1ccc(C2=NCCCN2)cc1)NC1C(=O)N2C(C(=O)O)=C(CSc3nnc(-c4ccccc4)o3)CSC12 (stereo not drawn) [Example 83, 3-[(5-phenyl-1,3,4-oxadiazole-2-yl)-thiomethyl]-7-[4-(1,4,5,6-tetrahydropyrimide-2-yl)-phenylacetamido]-Δ 3-cephem-4-carboxylic acid]		0.000391 to 0.0078 (≈ 0.000662 to 0.0132 µM)	10 to 50 (≈ 16.9 to 84.6 µM)		0.5 to 1.25				
N=C(N)c1ccc(OCC(=O)NC2C(=O)N3C(C(=O)O)=C(CSC4=NCCS4)CSC23)cc1 (stereo not drawn) [Example 30, 3-[(Δ2-thiazolidine-2-yl)-thiomethyl]-7-(4-amidinophenoxyacetamido)-Δ3-cephem-4-carboxylic acid]	0.5 to 1.25 (≈ 0.985 to 2.46 µM)	0.000391 to 0.0078 (≈ 0.00077 to 0.0154 µM)	10 to 50 (≈ 19.7 to 98.5 µM)						
Cc1cc(C)nc(SCC2=C(C(=O)O)N3C(=O)C(NC(=O)Cc4ccc(C5=NCCCN5)cc4)C3SC2)n1 (stereo not drawn) [Example 98]	0.5 to 1.25 (≈ 0.905 to 2.26 µM)	0.000391 to 0.0078 (≈ 0.000707 to 0.0141 µM)	10 to 50 (≈ 18.1 to 90.5 µM)						

From patent publication US4016159A, “Acylamino-cephem-carboxylic acids containing an amidino or guanidino group in the molecule” (Hoechst Aktiengesellschaft, priority 1973, dated 1977)
